The first assay relates to B16 melanoma 4A5 cell. Nature of the assay: Whitening test: theophylline-induced melanine production in B16 melanoma 4A5 cells.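 As to Whitening effect (melanine production suppressing rate): grades: ± under 20% + 20-40% ++ 40-70% +++ 70-100% suppression.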 The conditions noted are these: conclusion from Tables 38-40, compared with known ascorbic acid derivatives. The format is cell-based, mouse. On the procedure:
As a test for a whitening effect, evaluation of the action of B16 melanoma 4A5 cell on theophylline-induced melanine production was carried out on an ascorbic acid derivative of the present invention, according to the following procedure. The same evaluation was carried out also on ascorbic acid, known compounds: ascorbic acid salts, and ascorbic acid derivatives, as comparison. The results are shown in Tables 38 to 40. • (1) B16 mouse melanoma 4A5 strain was sowed onto a 48-well plate at a cell density of 2.0×10^4 cells/well. • (2) Culturing was performed for 24 hours with Dulbecco's Modified Eagle's medium (manufactured by SIGMA. Hereinafter, abbreviated as D-MEM) containing 10% fetal bovine serum (manufactured by Roshe Diagnostics). Then, it was changed to 0.2 mM theophylline and a 10% fetal bovine serum-containing D-MEM which contains a sample of given concentration. • (3) After culturing for 3 days in the co-existence of a sample, the medium was removed using an aspirator. Then, after distilled water was added, cells were broken by an ultrasonic wave. • (4) Thereafter, the amount of protein was determined using BCA protein assay kit (manufactured by PIERCE), and the produced amount of melanine was measured by an alkali solubilizing method. To the cell-destructed solution was added sodium hydroxide so as to give a final concentration of 2N and the mixture was dissolved by heating (60° C., 15 minutes), then, the absorbance at 450 nm was measured using a micro plate reader. The melanine amount was calculated from a calibration curve made using synthetic melanine (SIGMA) as a standard. The melanine amount per unit protein was calculated by dividing the melanine amount by the protein amount. • (5) The melanine production suppressing rate was calculated according to the following formula. Melanine production suppressing rate (%)=[1−(A−B)/(C−B)]×100 [wherein, A represents the melanine amount per unit protein (g/g) in adding a sample, B represents the melanine amount per unit protein (g/g) in the normal group, and C represents the melanine amount per unit protein (g/g) in the control group.]
In the following Tables, the melanine production suppressing rate in measuring a sample at a concentration of 100 μM or less is expressed as described below. The measurement was carried out at N=4.
Take `CCCCCCCCCCCCCCOC1=C(OCC(O)CO)[C@@H]([C@@H](O)CO)OC1=O` (some centres unmarked) [Example 65, 3-O-glyceryl-2-O-tetradecyl ascorbic acid]: the “whitening effect (in words)” value is reported as “excellent whitening effect”.

The same assay, now with this note: sample at a concentration of 100 μM or less; theophylline-induced melanine production; 3 days culture; N=4.
Consider `CCCCCCCCCCCCCCCCOCC(O)COC1=C(OCC(O)CO)C(=O)OC1C(O)CO` (centres unmarked) [Example 82], for which the “Whitening effect (melanine production suppressing rate)” value is “++ (40 to 70%:++)”.

`C=CCOC1=C(OCC(O)COc2ccccc2)[C@@H]([C@@H](O)CO)OC1=O` (some centres unmarked) [Example 55]: the “Whitening effect (melanine production suppressing rate)” value was “+ (20 to 40%:+)”. The same measure, in the same setting: for `CCOCC(O)COC1=C(OCC)C(=O)O[C@@H]1[C@@H](O)CO` (some centres unmarked) [Example 66] the value was “+ (20 to 40%:+)”. On the same count and under the same terms, for `CC=CCOC1=C(OCC(O)COCCCC)[C@@H]([C@@H](O)CO)OC1=O` (some centres unmarked) [Example 53] the value was “+ (20 to 40%:+)”; for `CCCCCCCCCCCCOC1=C(OCC(O)COCCCC)[C@@H]([C@@H](O)CO)OC1=O` (some centres unmarked) [Example 71], “+ (20 to 40%:+)”; for `CCOCC(O)COC1=C(O)C(=O)OC1C(O)CO` (centres unmarked) [Example 7, 3-O-ethylglyceryl ascorbic acid], “+ (20 to 40%:+)”. For `CCCCCCCCCCCCOCC(O)COC1=C(OCC(O)CO)C(C(O)CO)OC1=O` (centres unmarked) [Example 85], the “Whitening effect (melanine production suppressing rate)” value is recorded as “++ (40 to 70%:++)”. Take `CCCCCCOC1=C(OCC(O)CO)[C@@H]([C@@H](O)CO)OC1=O` (some centres unmarked) [Example 58]: the “Whitening effect (melanine production suppressing rate)” value is recorded as “++ (40 to 70%:++)”.

With `CCCCCCCOC1=C(OCC(O)CO)[C@@H]([C@@H](O)CO)OC1=O` (some centres unmarked) [Example 59], the “Whitening effect (melanine production suppressing rate)” value is on record as “++ (40 to 70%:++)”. On the same count and under the same terms, for `CCCCCCCCCCCCCCCCOCC(O)COC1=C(OCC(O)COCCCCCCCC)C(C(O)CO)OC1=O` (centres unmarked) [Example 92] the value was “++ (40 to 70%:++)”; for `O=C1OC(C(O)CO)C(OCC(O)COc2ccccc2)=C1OCC(O)COc1ccccc1` (centres unmarked) [Example 88, 2,3-di-O-phenylglyceryl ascorbic acid], “++ (40 to 70%:++)”; for `CCCCCCCCCCCOC1=C(OCC(O)CO)[C@@H]([C@@H](O)CO)OC1=O` (some centres unmarked) [Example 62], “++ (40 to 70%:++)”.

Regarding `CCCCCCCCOCC(O)COC1=C(OCCCCCCCC)C(=O)O[C@@H]1[C@@H](O)CO` (some centres unmarked) [Example 73], the “Whitening effect (melanine production suppressing rate)” value is reported as “+ (20 to 40%:+)”. The same measure, in the same setting: for “3-O-(2-hydroxydecyl)-2-O-butylglyceryl ascorbic acid [Example 28]” the value was “++ (40 to 70%:++)”. Take `CCCCCCCCC(O)COC1=C(OCCCC)C(=O)O[C@@H]1[C@@H](O)CO` (some centres unmarked) [Example 79]: the “Whitening effect (melanine production suppressing rate)” value is given as “+++ (70 to 100%:+++)”. Turning to `CCCCCCCCCCCCOC1=C(OCC(O)CO)[C@@H]([C@@H](O)CO)OC1=O` (some centres unmarked) [Example 63], the “Whitening effect (melanine production suppressing rate)” value is “++ (40 to 70%:++)”. Turning to `CCCCCCCCC(O)COC1=C(OCC(O)CO)C(=O)OC1C(O)CO` (centres unmarked) [Example 83], the “Whitening effect (melanine production suppressing rate)” value was “+ (20 to 40%:+)”. Same read-out and setting: for `CCCCCCCCCCCCCCCCOC1=C(OCC(O)COCCCC)[C@@H]([C@@H](O)CO)OC1=O` (some centres unmarked) [Example 72] the value was “++ (40 to 70%:++)”; for “3-O-dodecylglyceryl-2-O-octylglyceryl ascorbic acid [Example 26]”, “++ (40 to 70%:++)”.

As to `OC[C@H]1O[C@@H](Oc2ccc(O)cc2)[C@H](O)[C@@H](O)[C@@H]1O` [arbutin], the “Whitening effect (melanine production suppressing rate)” value is recorded as “++ (40 to 70%:++)”.

For `CCCCCCCCCCOC1=C(OCC(O)CO)[C@@H]([C@@H](O)CO)OC1=O` (some centres unmarked) [Example 61], the “Whitening effect (melanine production suppressing rate)” value is “+++ (70 to 100%:+++)”. As for `CCCCCCCCOCC(O)COC1=C(OCC(O)COCCCCCCCC)C(C(O)CO)OC1=O` (centres unmarked) [Example 91], the “Whitening effect (melanine production suppressing rate)” value was “+ (20 to 40%:+)”. Still for that read-out and setting: for `O=C1OC(C(O)CO)C(OC(CO)c2ccccc2)=C1O` (centres unmarked) [compound 12, 3-O-(2-hydroxy-1-phenylethyl)ascorbic acid] the value was “++ (40 to 70%:++)”. `O=C1O[C@H]([C@@H](O)CO)C([O-])=C1O.[Na+]` [sodium ascorbate, reference compound]: the “Whitening effect (melanine production suppressing rate)” value is “± (<20%:±)”. Regarding `CCCCCCCCCCCCCCCCOCC(O)COC1=C(OCC(O)CO)C(C(O)CO)OC1=O` (centres unmarked) [Example 86], the “Whitening effect (melanine production suppressing rate)” value was “++ (40 to 70%:++)”.

Regarding `CCCCCCOC1=C(OCC(O)COCCCC)[C@@H]([C@@H](O)CO)OC1=O` (some centres unmarked) [Example 69], the “Whitening effect (melanine production suppressing rate)” value is recorded as “+++ (70 to 100%:+++)”. As to `CCCCCCCCC(O)COC1=C(OCC)C(C(O)CO)OC1=O` (centres unmarked) [Example 98], the “Whitening effect (melanine production suppressing rate)” value is “++ (40 to 70%:++)”. On the same count and under the same terms, for `CCCCCCCCCCCCCCOC1=C(OCC(O)CO)[C@@H]([C@@H](O)CO)OC1=O` (some centres unmarked) [Example 65, 3-O-glyceryl-2-O-tetradecyl ascorbic acid] the value was “++ (40 to 70%:++)”; for `CCOCC(O)COC1=C(O)C(C(O)CO)OC1=O` (centres unmarked) [Example 13, 2-O-ethylglyceryl ascorbic acid], “+ (20 to 40%:+)”; for `CCCCCCCCOC1=C(OCC(O)COCCCC)[C@@H]([C@@H](O)CO)OC1=O` (some centres unmarked) [Example 70], “++ (40 to 70%:++)”.

In the case of `CCOC1=C(OCC(O)CO)C(=O)OC1C(O)CO` (centres unmarked) [Example 96], the “Whitening effect (melanine production suppressing rate)” value is given as “+ (20 to 40%:+)”. Same read-out and setting: with `CCCCCCCCCOC1=C(OCC(O)CO)[C@@H]([C@@H](O)CO)OC1=O` (some centres unmarked) [Example 60] the entry was “+++ (70 to 100%:+++)”; with `CCCCCCCCCCCCCOC1=C(OCC(O)CO)[C@@H]([C@@H](O)CO)OC1=O` (some centres unmarked) [Example 64], “++ (40 to 70%:++)”. The same measure, in the same setting: with `CCCCOCC(O)COC1=C(OCC)C(=O)O[C@@H]1[C@@H](O)CO` (some centres unmarked) [Example 68] the entry was “+ (20 to 40%:+)”; with `CCCCCCCCCCCCCCCCOC1=C(OCC(O)CO)[C@@H]([C@@H](O)CO)OC1=O` (some centres unmarked) [Example 15, 3-O-glyceryl-2-O-hexadecyl ascorbic acid], “++ (40 to 70%:++)”; with `CCCCCCCCCCCCCCCCOCC(O)COC1=C(OCCCCCCCC)C(=O)O[C@@H]1[C@@H](O)CO` (some centres unmarked) [Example 77], “+ (20 to 40%:+)”.

The subject of another assay is Normal human dermal fibroblasts. Nature of the assay: Collagen production of human fibroblast (Sircol collagen assay, 100 μM, 48 hours). The format is cell-based. The conditions noted are these: cultured 48 hours, N=4. On the procedure: Normal human dermal fibroblasts were regulated with a 10% (v/v) fetal bovine serum (manufactured by Roshe Diagnostics)-containing D-MEM so as to give a cell density of 2.5×10^4 cells/well, then, pre-incubation for 24 hours was performed on a 96-well plate. After the medium was removed, a sample regulated with a 5% (v/v) fetal bovine serum-containing D-MEM to a concentration of 100 μM was added to each well, then, cultured for 48 hours under 37° C. and 5% CO2. After completion of culturing, the amount of free collagen was measured using Sircol collagen assay kit (manufactured by Biocolor). The measurement was carried out at N=4.
The collagen production amount in measuring a sample at a concentration of 100 μM was compared with the control group, and the results thereof (% value when the control group is 100%) are shown in Tables 44 and 45 based on the following standard.
Regarding `CCOCC(O)COC1=C(OCC)C(=O)O[C@@H]1[C@@H](O)CO` (some centres unmarked) [Example 66], the “Collagen production promoting effect (collagen production amount, % of control group)” value was “+ (100 to 200%:+)”. Consider `CCCCCCCCCCCCCCCCOCC(O)COC1=C(OCC(O)COCCCCCCCC)C(C(O)CO)OC1=O` (centres unmarked) [Example 92], for which the “Collagen production promoting effect (collagen production amount, % of control group)” value is “+ (100 to 200%:+)”.

Consider `O=C1OC(C(O)CO)C(OCC(O)COc2ccccc2)=C1OCC(O)COc1ccccc1` (centres unmarked) [Example 88, 2,3-di-O-phenylglyceryl ascorbic acid], for which the “Collagen production promoting effect (collagen production amount, % of control group)” value is recorded as “+ (100 to 200%:+)”. Take “3-O-(2-hydroxydecyl)-2-O-butylglyceryl ascorbic acid [Example 28]”: the “Collagen production promoting effect (collagen production amount, % of control group)” value is given as “+ (100 to 200%:+)”.

Turning to `CCCCCCCCC(O)COC1=C(OCC(O)CO)C(=O)OC1C(O)CO` (centres unmarked) [Example 83], the “Collagen production promoting effect (collagen production amount, % of control group)” value is on record as “+ (100 to 200%:+)”.

For “3-O-ethylglyceryl-2-O-butyl ascorbic acid [Example 18]”, the “Collagen production promoting effect (collagen production amount, % of control group)” value is listed as “+ (100 to 200%:+)”.

As for `O=C1O[C@H]([C@@H](O)CO)C(OCC(O)COc2ccccc2)=C1O` (some centres unmarked) [Example 44], the “Collagen production promoting effect (collagen production amount, % of control group)” value was “+ (100 to 200%:+)”.

The values above are taken from patent US8163939B2, “Ascorbic acid derivative or salt thereof, production method thereof, and cosmetic” (Seikwa Kasei Company, Limited, priority 2007, dated 2012).
